# Experimental data published in patent US20230279020A9, “CARM1 INHIBITORS AND USES THEREOF” (Epizyme, Inc., priority 2013, published 2023).
# Target: Human CARM1 (PRMT4) (Homo sapiens (Human), UniProt Q86X55)
# Experiment: CARM1 enzyme assay on peptide substrate (3H-SAM Flashplate)
# Conditions: Biochemical potencies, classification codes; read-out: Biochem IC50
# Chain of Human CARM1 (PRMT4) (Q86X55 other isoform, or with tags, fused parts or gaps isoform Q86X55-1): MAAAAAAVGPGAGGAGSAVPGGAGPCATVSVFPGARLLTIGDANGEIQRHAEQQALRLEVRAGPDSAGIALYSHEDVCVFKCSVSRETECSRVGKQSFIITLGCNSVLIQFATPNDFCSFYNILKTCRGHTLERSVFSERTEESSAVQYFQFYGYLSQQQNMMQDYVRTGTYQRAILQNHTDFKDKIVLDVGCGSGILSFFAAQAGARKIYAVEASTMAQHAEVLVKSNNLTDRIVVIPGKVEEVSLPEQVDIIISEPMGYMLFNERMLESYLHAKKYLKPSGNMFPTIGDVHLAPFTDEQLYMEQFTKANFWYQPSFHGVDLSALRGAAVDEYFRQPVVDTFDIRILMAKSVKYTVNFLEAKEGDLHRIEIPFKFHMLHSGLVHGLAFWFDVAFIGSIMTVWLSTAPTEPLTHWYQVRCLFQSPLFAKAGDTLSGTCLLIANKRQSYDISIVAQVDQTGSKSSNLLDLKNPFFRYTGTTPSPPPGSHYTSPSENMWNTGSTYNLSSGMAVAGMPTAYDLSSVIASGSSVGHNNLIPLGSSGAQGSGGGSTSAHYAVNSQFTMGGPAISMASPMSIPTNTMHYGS
row,Compound,IC50 [nM]
1,CNCC(O)COc1cccc(-c2nc(-c3c(C)noc3C)cc(N3CCN(CCF)CC3)n2)c1 (centres unmarked) [Example 68-1a],< 100
2,CNC[C@@H](O)COc1cccc(-c2nc(N[C@@H]3CCN(C4CC4)C[C@@H]3F)c(Cl)c(-c3c(C)noc3C)n2)c1 [Example 68-3],< 100
3,CNCC(O)COc1cccc(-c2nc(-c3c(C)noc3C)cc(N3CC[C@H](S(C)(=O)=O)C3)n2)c1 (some centres unmarked) [Example 69-1a],< 100
4,CNC[C@H](O)COc1ccc(Cl)c(-c2nc(-c3c(C)noc3C)cc(N3CC4(CCN(C5CC5)CC4)C3)n2)c1 [Example 69-3],< 100
5,CNCC(O)COc1cc(Cl)cc(-c2nc(-c3ccn4cnnc4c3)c(C)c(N(C)C3CCOCC3)n2)c1 (centres unmarked) [Example 70-1],< 100
6,CNCC(O)COc1cccc(-c2nc(-c3c(C)noc3C)cc(N3CCN(C(C)=O)C4(CC4)C3)n2)c1 (centres unmarked) [Example 70-1a],< 100
7,CCS(=O)(=O)N1CCC(Nc2nc(-c3cccc(OCC(O)CNC)c3)nc(-c3c(C)nsc3C)c2C)CC1 (centres unmarked) [Example 70-3],< 100
8,CNCC(O)COc1cccc(-c2nc(NCCCN3CCCC3=O)cc(-c3ccc(C(F)(F)F)nc3)n2)c1 (centres unmarked) [Example 71-1],< 100
9,CNCC(O)COc1cccc(-c2nc(-c3c(C)noc3C)c(C)c(N3CC[C@H](N(C)C(C)=O)C3)n2)c1 (some centres unmarked) [Example 71-1a],< 100
10,CCS(=O)(=O)N1CCOC[C@@H]1CNc1nc(-c2cccc(OCC(O)CNC)c2)nc(-c2c(C)nsc2C)c1C (some centres unmarked) [Example 71-3],< 100
11,CNCC(O)COc1cccc(-c2nc(Nc3cnc(OC)nc3)cc(-c3c(C)noc3C)n2)c1 (centres unmarked) [Example 72-1a],< 100
12,CNC[C@H](O)COc1ccc(F)c(-c2nc(NC3CCOCC3)c(C)c(-c3c(C)noc3C)n2)c1 [Example 72-3],< 100
13,CNC[C@H](O)COc1ccc(F)c(-c2nc(NC3CCOC(C)C3)c(C)c(-c3c(C)noc3C)n2)c1 (some centres unmarked) [Example 73-3],< 100
14,CNCC(O)COc1cc(N)cc(-c2nc(NC3CCOCC3)c(C)c(-c3c(C)noc3C)n2)c1 (centres unmarked) [Example 74-1a],< 100
15,CNC[C@H](O)COc1ccc(Cl)c(-c2nc(-c3c(C)noc3C)c(C)c(N3CCN(C)C(C(F)F)C3)n2)c1 (some centres unmarked) [Example 74-3],< 100
16,CNCC(O)COc1cc(OC)cc(-c2nc(NC3CCOCC3)c(C)c(-c3c(C)noc3C)n2)c1 (centres unmarked) [Example 75-1a],< 100
17,CNC[C@H](O)COc1ccc(Cl)c(-c2nc(-c3c(C)noc3C)c(C)c(N3CCC4(CC3)CN(S(C)(=O)=O)C4)n2)c1 [Example 75-3],< 100
18,CNCC(O)COc1cc(O)cc(-c2nc(NC3CCOCC3)c(C)c(-c3c(C)noc3C)n2)c1 (centres unmarked) [Example 76-1a],< 100
19,CNC[C@H](O)COc1ccc(F)c(-c2nc(-c3c(C)noc3C)c(C)c(N3CCC4(CC3)CN(S(C)(=O)=O)C4)n2)c1 [Example 76-3],< 100
20,CCOC(=O)N1CCN(c2nc(-c3cccc(OCC(O)CNC)c3)nc(-c3c(C)noc3C)c2C)CC1 (centres unmarked) [Example 77-1a],< 100
21,CCN1CCC[C@@H]1CNc1nc(-c2cc(OC[C@@H](O)CNC)ccc2Cl)nc(-c2c(C)noc2C)c1C [Example 77-3],< 100
22,CNCC(O)COc1cccc(-c2nc(NCC3CCOCC3)cc(-c3c(C)noc3C)n2)c1 (centres unmarked) [Example 78-1a],< 100
23,CNCC(O)COc1cccc(-c2nc(-c3c(C)noc3C)cc(N3CCN(CC(F)F)CC3)n2)c1 (centres unmarked) [Example 79-1a],< 100

row,Compound,IC50 [nM]
1,CNCC(O)COc1cccc(-c2nc(-c3c(C)noc3C)cc(N3C[C@@H]4C[C@H]3CN4S(C)(=O)=O)n2)c1 (some centres unmarked) [Example 80-1a],< 100
2,CNCC(O)COc1cccc(-c2nc(-c3c(C)noc3C)cc(N3CCN(C(=O)OC)CC3)n2)c1 (centres unmarked) [Example 81-1a],< 100
3,CNC[C@H](O)COc1ccc(Cl)c(-c2nc(NCCC(C)(C)OC)c(C)c(-c3c(C)noc3C)n2)c1 [Example 82-3],< 100
4,CNC[C@H](O)COc1ccc(F)c(-c2nc(NCCC(C)(C)OC)c(C)c(-c3c(C)noc3C)n2)c1 [Example 83-3],< 100
5,CNCC(O)COc1cccc(-c2nc(-c3c(C)noc3C)c(C)c(N3C[C@@H]4C[C@H]3CN4C)n2)c1 (some centres unmarked) [Example 84-1a],< 100
6,CNC[C@H](O)COc1ccc(F)c(-c2nc(-c3c(C)noc3C)c(C)c(N3CCC4(CC3)CN(C(=O)OC)C4)n2)c1 [Example 84-3],< 100
7,CNCC(O)COc1cccc(-c2nc(NC3(C)CCOCC3)cc(-c3c(C)noc3C)n2)c1 (centres unmarked) [Example 85-1a],< 100
8,CNC[C@H](O)COc1ccc(Cl)c(-c2nc(-c3c(C)noc3C)c(C)c(N3CCC4(CC3)CN(C(=O)OC)C4)n2)c1 [Example 85-3],< 100
9,CNCC(O)COc1cccc(-c2nc(-c3c(C)noc3C)c(C)c(N(C)CC3CCOCC3)n2)c1 (centres unmarked) [Example 86-1a],< 100
10,CNC[C@H](O)COc1ccc(Cl)c(-c2nc(-c3c(C)noc3C)c(C)c(N3Cc4cc(F)cnc4C3)n2)c1 [Example 86-3],< 100
11,CNCC(O)COc1cccc(-c2nc(-c3c(C)noc3C)cc(N(C)CC3CCOCC3)n2)c1 (centres unmarked) [Example 87-1a],< 100
12,CNC[C@H](O)COc1ccc(Cl)c(-c2nc(-c3c(C)noc3C)c(C)c(N3Cc4cc(Cl)cnc4C3)n2)c1 [Example 87-3],< 100
13,CNCC(O)COc1cccc(-c2nc(NCC3CCOCC3)c(C)c(-c3c(C)noc3C)n2)c1 (centres unmarked) [Example 88-1a],< 100
14,CCOC(=O)N1CCC(Nc2nc(-c3cc(OC[C@H](O)CNC)ccc3Cl)nc(-c3c(C)noc3C)c2C)CC1 [Example 88-3],< 100
15,CNCC(O)COc1cccc(-c2nc(-c3c(C)noc3C)c(C)c(N(C)C3CCN(C(=O)OC)CC3)n2)c1 (centres unmarked) [Example 89-1a],< 100
16,CNC[C@H](O)COc1ccc(Cl)c(-c2nc(NC3CCN(C(=O)OC)CC3)c(C)c(-c3c(C)noc3C)n2)c1 [Example 89-3],< 100
17,CNCC(O)COc1cccc(-c2nc(-c3c(C)noc3C)cc(N(C)C3CCN(C(=O)OC)CC3)n2)c1 (centres unmarked) [Example 90-1a],< 100
18,CNC[C@H](O)COc1ccc(Cl)c(-c2nc(-c3c(C)noc3C)c(C)c(N3Cc4ccncc4C3)n2)c1 [Example 90-3],< 100
19,CNCC(O)COc1cccc(-c2nc(-c3c(C)noc3C)cc(N3CCN(C(=O)N(C)C)[C@@H](C)C3)n2)c1 (some centres unmarked) [Example 91-1a],< 100
20,CNC[C@H](O)COc1ccc(F)c(-c2nc(-c3c(C)noc3C)c(C)c(N3Cc4cccnc4C3)n2)c1 [Example 91-3],< 100
21,CNCC(O)COc1cccc(-c2nc(-c3c(C)noc3C)cc(N3CCN(S(C)(=O)=O)[C@@H](C)C3)n2)c1 (some centres unmarked) [Example 92-1a],< 100
22,CNC[C@H](O)COc1ccc(Cl)c(-c2nc(-c3c(C)noc3C)c(C)c(N3Cc4cccnc4C3)n2)c1 [Example 92-3],< 100
23,CNCC(O)COc1cccc(-c2nc(-c3c(C)noc3C)cc(N3CCN(C)[C@@H](C)C3)n2)c1 (some centres unmarked) [Example 93-1a],< 100

row,Compound,IC50 [nM]
1,CCOC(=O)N1CCOC[C@@H]1CNc1nc(-c2cc(OCC(O)CNC)ccc2Cl)nc(-c2c(C)nsc2C)c1C (some centres unmarked) [Example 93-3],< 100
2,CNCC(O)COc1cccc(-c2nc(-c3c(C)noc3C)cc(N3C[C@@H]4C[C@H]3CN4C(=O)OC)n2)c1 (some centres unmarked) [Example 94-1a],< 100
3,CNC[C@H](O)COc1ccc(Cl)c(-c2nc(N[C@@H]3CCOC3)c(C)c(-c3c(C)noc3C)n2)c1 [Example 94-3],< 100
4,CNCC(O)COc1cccc(-c2nc(-c3c(C)noc3C)cc(N3C[C@@H]4C[C@H]3CN4C(C)=O)n2)c1 (some centres unmarked) [Example 95-1a],< 100
5,CNC[C@H](O)COc1ccc(Cl)c(-c2nc(-c3c(C)noc3C)c(C)c(N(C)[C@H]3C[C@@](C)(OC)C3)n2)c1 [Example 95-3],< 100
6,CNCC(O)COc1cccc(-c2nc(NC3CCOCC3)c(F)c(-c3c(C)noc3C)n2)c1 (centres unmarked) [Example 96-1a],< 100
7,CNC[C@H](O)COc1ccc(Cl)c(-c2nc(NCC3COCCO3)c(C)c(-c3c(C)noc3C)n2)c1 (some centres unmarked) [Example 96-3],< 100
8,CNCC(O)COc1cccc(-c2nc(-c3c(C)noc3C)c(F)c(N3CCN(C(=O)OC)CC3)n2)c1 (centres unmarked) [Example 97-1a],< 100
9,CNCC(O)COc1ccc(Cl)c(-c2nc(NC3CCOCC3)c(C)c(-c3c(C)nsc3C)n2)c1 (centres unmarked) [Example 97-3],< 100
10,CNCC(O)COc1cccc(-c2nc(-c3c(C)noc3C)cc(N(CCOC)C3CCOCC3)n2)c1 (centres unmarked) [Example 98-1a],< 100
11,CNC[C@@H](O)COc1ccc(F)c(-c2nc(N[C@H]3CCN(C4CC4)C[C@H]3F)c(C)c(-c3c(C)noc3C)n2)c1 [Example 98-3],< 100
12,CNCC(O)COc1cccc(-c2nc(NCCCN3CCCCCC3=O)cc(-c3c(C)noc3C)n2)c1 (centres unmarked) [Example 99-1a],< 100
13,CNC[C@H](O)COc1ccc(F)c(-c2nc(N[C@H]3CCN(C4CC4)C[C@H]3F)c(C)c(-c3c(C)noc3C)n2)c1 [Example 99-3],< 100
14,CNCC(O)COc1cccc(-c2nc(-c3c(C)noc3C)cc(N3C[C@H]4C[C@@H]3CN4S(C)(=O)=O)n2)c1 (some centres unmarked) [Example 100-1a],< 100
15,CNC[C@@H](O)COc1ccc(Cl)c(-c2nc(N[C@@H]3CCOC3)c(C)c(-c3c(C)noc3C)n2)c1 [Example 100-3],< 100
16,CNCC(O)COc1cccc(-c2nc(NC3(C)CCOCC3)c(C)c(-c3c(C)noc3C)n2)c1 (centres unmarked) [Example 101-1a],< 100
17,CNC[C@@H](O)COc1ccc(Cl)c(-c2nc(N[C@@H]3CCN(C(=O)OC)[C@@H](C)C3)c(C)c(-c3c(C)noc3C)n2)c1 [Example 101-3],< 100
18,CNCC(O)COc1cccc(-c2nc(NC3CCN(C(=O)OC)CC3)cc(-c3c(C)noc3C)n2)c1 (centres unmarked) [Example 102-1a],< 100
19,CNC[C@@H](O)COc1ccc(Cl)c(-c2nc(N[C@H]3CCN(C(=O)OC)[C@H](C)C3)c(C)c(-c3c(C)noc3C)n2)c1 [Example 102-3],< 100
20,CNCC(O)COc1cccc(-c2nc(-c3c(C)noc3C)cc(N3CCN(CCF)[C@@H](C)C3)n2)c1 (some centres unmarked) [Example 103-1a],< 100
21,CNC[C@H](O)COc1ccc(Cl)c(-c2nc(N[C@H]3CCN(C(=O)OC)[C@H](C)C3)c(C)c(-c3c(C)noc3C)n2)c1 [Example 103-3],< 100
22,CNCC(O)COc1cccc(-c2nc(-c3c(C)noc3C)cc(N3CCN(CC(F)(F)F)[C@@H](C)C3)n2)c1 (some centres unmarked) [Example 104-1a],< 100
